# Laboratory results: patent US20110136145A1, “METHODS FOR PROMOTING FUSION AND REPROGRAMMING OF SOMATIC CELLS” (THE JOHNS HOPKINS UNIVERSITY, priority 2008, published 2011)
# Entries after “also recorded” stand apart in the source; their conditions may differ.
# Biological target: T1, Jhdm2a (Homo sapiens, UniProt Q9Y4C1)
# T1 construct: expressed in transfected cells; host or cells: 293T cells
# T1 sequence (Q9Y4C1 1-1321): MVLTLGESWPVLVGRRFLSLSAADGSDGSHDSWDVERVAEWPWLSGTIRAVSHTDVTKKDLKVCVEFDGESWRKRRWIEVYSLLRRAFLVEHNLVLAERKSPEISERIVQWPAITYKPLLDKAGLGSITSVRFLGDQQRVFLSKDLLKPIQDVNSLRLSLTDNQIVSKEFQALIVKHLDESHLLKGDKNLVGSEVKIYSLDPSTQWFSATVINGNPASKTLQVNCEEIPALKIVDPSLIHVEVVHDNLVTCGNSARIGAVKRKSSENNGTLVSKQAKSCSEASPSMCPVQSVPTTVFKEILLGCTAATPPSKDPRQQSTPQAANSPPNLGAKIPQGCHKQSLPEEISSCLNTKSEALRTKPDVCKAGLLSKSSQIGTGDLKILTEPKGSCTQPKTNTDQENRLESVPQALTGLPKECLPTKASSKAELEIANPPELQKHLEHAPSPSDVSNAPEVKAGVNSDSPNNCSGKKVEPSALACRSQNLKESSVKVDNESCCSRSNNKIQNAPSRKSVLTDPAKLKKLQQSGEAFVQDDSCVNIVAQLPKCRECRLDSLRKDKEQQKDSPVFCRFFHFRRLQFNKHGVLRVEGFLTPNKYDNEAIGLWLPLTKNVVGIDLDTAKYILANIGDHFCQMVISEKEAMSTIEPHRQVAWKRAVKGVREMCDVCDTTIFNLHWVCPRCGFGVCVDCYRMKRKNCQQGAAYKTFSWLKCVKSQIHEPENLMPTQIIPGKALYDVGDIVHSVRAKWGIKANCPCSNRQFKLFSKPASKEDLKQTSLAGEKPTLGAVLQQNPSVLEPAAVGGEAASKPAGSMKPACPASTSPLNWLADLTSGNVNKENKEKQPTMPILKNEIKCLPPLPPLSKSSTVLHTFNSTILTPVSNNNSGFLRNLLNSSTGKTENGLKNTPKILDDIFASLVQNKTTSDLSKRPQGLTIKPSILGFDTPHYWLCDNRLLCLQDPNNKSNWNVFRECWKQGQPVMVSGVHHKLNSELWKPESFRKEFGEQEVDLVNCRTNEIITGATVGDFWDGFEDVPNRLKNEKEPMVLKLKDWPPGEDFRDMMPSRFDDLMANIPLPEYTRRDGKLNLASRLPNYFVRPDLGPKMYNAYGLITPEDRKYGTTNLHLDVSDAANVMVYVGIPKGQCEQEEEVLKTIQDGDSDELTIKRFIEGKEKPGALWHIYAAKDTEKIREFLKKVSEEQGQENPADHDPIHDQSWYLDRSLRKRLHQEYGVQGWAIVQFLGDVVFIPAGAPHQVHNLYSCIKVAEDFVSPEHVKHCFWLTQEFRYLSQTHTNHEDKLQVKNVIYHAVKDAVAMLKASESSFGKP
# Assay: Immunolabeling assay of Jhdm2a-induced H3K9 demethylation in 293T cells
# Type: cell-based
# Conditions: 10 μM; 293T cells transfected with Jhdm2a-EGFP; vs DMSO
# Source text: (A) Inhibition of Jhdm2a induced histone demethylation by DMOG. Blocking effects of DMOG on Jhdm2a were examined in 293T cells transfected with a plasmid expressing Jhdm2a-EGFP fusion protein. In control cells treated with DMSO, histone 3 lysine 9 dimethylation (H3K9diM) immunostaining signal was lost in Jhdm2a-GFP transfected cells (arrows). […] DAPI labels all cell nuclei. Scale bar: 20 μm. (B-D) show DMOG attenuates ESC-induced reactivation of Oct4 expression from adult NSCs. […] Representative plots from multiple experiments are shown (B). Reprogramming frequencies from multiple experiments were quantified (C) for fusion population with the 48-hour treatment of DMSO or DMOG. Data represent mean±SEM. (n=3; ** P<0.01, Student's t-test). Shown in (D) is the cumulative distribution plot of DsRed+ population with graded GFP fluorescence intensities for comparison of the reprogramming efficacy in the presence of DMSO or DMOG (n=3 experiments; * P<0.01, Kolmogorov-Smirnov test).
# To confirm the blocking effects of DMOG on histone demethylases, an immuno labeling assay previously developed for JHDM2A was used. Overexpression of Jhdm2a in heterologous cell lines led to dramatic loss of H3K9 dimethylation, which was blocked by the DMOG treatment (10 μM FIG. 6A). […]
compound,measurement,value
"COC(=O)CNC(=O)C(=O)OC [DMOG, dimethyloxalylglycine]",Jhdm2a-induced loss of H3K9 dimethylation,blocked; also recorded: H3K9 dimethylation signals are present in all cells
